Reference: patent US10130651B2, “RNAi Therapy for Hepatitis B Virus Infection” (Arrowhead Pharmaceuticals, Inc., priority 2015, dated 2018)

Tests used:
Type in all cases: in vivo, NOD-SCID mice (pHBV model)
HBsAg, Hepatitis B Virus [1] = assay: Serum HBsAg in pHBV mice after MLP delivery peptide plus AD01385 and/or AD01386 (Example 10, Tables 17, 18); settings: 3 mg/kg MLP delivery peptide plus […] of each RNAi trigger; for Mean HBsAg in serum: single IV
Procedure: At day −28, 6 to 8 week old female NOD.CB17-Prkdscid/NcrCrl (NOD-SCID) mice were transiently transfected in vivo with MC-HBV 1.3 by hydrodynamic tail vein injection as described.
CDM-NAG was added to MLP, SEQ ID NO: 650 (GIL MLP, L-form), in a 250 mM HEPES-buffered aqueous solution at a 5:1 (w/w) ratio at room temperature and incubated for 30 min to yield MLP delivery peptide. The reaction mixture was adjusted to pH 9.0 with 4 M NaOH. The extent of the reaction was assayed using 2,4,6-trinitrobenzene-sulfonic acid and determined to be >95%. MLP delivery peptide was purified by tangential flow in 10 mM bicarbonate buffer, pH 9.0, to which 10% dextran (w/w) was added. The final purified material was lyophilized.
5 mg lyophilized MLP delivery peptide was resuspended with 1 mL water. MLP delivery peptide was then combined with HBV RNAi triggers (AD01385 or AD01386) at the various dose levels.
At Day 1, each mouse was given a single IV administration via tail vein of 200 μl per 20 gram body weight of saline containing MLP delivery peptide+HBV RNAi triggers.
At various time points, before and after administration of MLP delivery peptide+HBV RNAi triggers, serum HBsAg and serum HBV DNA were measured. The HBsAg level in serum for each animal at a time point was divided by the pre-treatment level in that animal in order to determine the ratio of HBsAg in serum “normalized to pre-treatment”. The HBV DNA level in serum for each group at a time point was also divided by the pre-treatment level in that group in order to determine the ratio of HBV DNA in serum “normalized to pre-treatment”. In order to account for non-treatment related decline in expression of MC-HBV 1.3 or pHBV 1.3.—the “normalized to pre-treatment” ratio for an individual animal at a time point was then divided by the average “normalized to pre-treatment” ratio of all mice in the saline control group at the same time point to obtain the ratio of HBsAg, or HBV DNA, in serum “normalized to pre-treatment and control”.
Mice were anesthetized with 2-3% isoflurane and blood samples were collected from the submandibular area into serum separation tubes (Sarstedt AG & Co., Nümbrecht, Germany). Blood was allowed to coagulate at ambient temperature for 20 min. The tubes were centrifuged at 8,000×g for 3 min to separate the serum and stored at 4° C.
Serum Hepatitis B surface antigen (HBsAg) and Serum HBV DNA levels were measured as described.

[2] = test system: HBV DNA, Hepatitis B Virus; assay: Serum HBV DNA in pHBV mice after MLP delivery peptide plus AD01385 and/or AD01386 (Example 10, Tables 19, 20); settings: 3 mg/kg MLP delivery peptide plus […] of each RNAi trigger; for Mean HBV DNA in serum: single IV
HBsAg, Hepatitis B Virus [3] = assay: Serum HBsAg in pHBV mice after MLP delivery peptide plus AD01385 and/or AD01386 (Example 10, Tables 17, 18); settings: 3 mg/kg MLP delivery peptide plus […] of each RNAi trigger; for Mean HBsAg in serum: single IV; remark: listed apart in the source

Substance: AD01385: duplex AM02315-AS/AM02319-SS (TEG) (antisense TAUGAUAAAACGCCGCAGATT; sense UAUUCUGCGGCGUUUUAUCAUAT; siRNA; TEG, chemistry not fully specified)
- Mean HBsAg in serum (HBsAg, Hepatitis B Virus [1]; day 5): 878 ± 697 ng/mL
- Mean HBsAg in serum (HBsAg, Hepatitis B Virus [1]; day 22): 2163 ± 1255 ng/mL
- Mean HBsAg in serum (HBsAg, Hepatitis B Virus [1]; day 36): 2067 ± 870 ng/mL
- HBsAg in serum (mean ± SD) (normalized to pre-dose and saline control group) (HBsAg, Hepatitis B Virus [1]; day 5): 0.108 ± 0.026
- HBsAg in serum (mean ± SD) (normalized to pre-dose and saline control group) (HBsAg, Hepatitis B Virus [1]; day 8): 0.282 ± 0.030
- HBsAg in serum (mean ± SD) (normalized to pre-dose and saline control group) (HBsAg, Hepatitis B Virus [1]; day 15): 0.665 ± 0.135
- HBsAg in serum (mean ± SD) (normalized to pre-dose and saline control group) (HBsAg, Hepatitis B Virus [1]; day 22): 0.589 ± 0.109
- HBsAg in serum (mean ± SD) (normalized to pre-dose and saline control group) (HBsAg, Hepatitis B Virus [1]; day 29): 0.660 ± 0.175
- Mean HBV DNA in serum ([2]; day 5): 9.84 × 10^6 copies/mL
- Mean HBV DNA in serum ([2]; day 8): 1.64 × 10^7 copies/mL
- Mean HBV DNA in serum ([2]; day 15): 7.69 × 10^7 copies/mL
- Mean HBV DNA in serum ([2]; day 22): 7.60 × 10^7 copies/mL
- Mean HBV DNA in serum ([2]; day 29): 7.69 × 10^7 copies/mL
- Mean HBV DNA in serum ([2]; day 36): 6.91 × 10^7 copies/mL
- Mean HBV DNA in serum ([2]; day −2 (pre-dose)): 2.04 × 10^8 copies/mL
- Mean HBV DNA in serum (normalized to pre-dose and saline control group) ([2]; day 5): 0.050 ± 0.000
- Mean HBV DNA in serum (normalized to pre-dose and saline control group) ([2]; day 8): 0.087 ± 0.020
- Mean HBV DNA in serum (normalized to pre-dose and saline control group) ([2]; day 15): 0.474 ± 0.029
- Mean HBV DNA in serum (normalized to pre-dose and saline control group) ([2]; day 22): 0.510 ± 0.074
- Mean HBV DNA in serum (normalized to pre-dose and saline control group) ([2]; day 29): 0.571 ± 0.034
- Mean HBV DNA in serum (normalized to pre-dose and saline control group) ([2]; day 36): 0.582 ± 0.040
- Mean HBV DNA in serum (normalized to pre-dose and saline control group) ([2]; day −2 (pre-dose)): 1.000 ± 0.000
- Mean HBsAg in serum (HBsAg, Hepatitis B Virus [3]; day 8): 1905 ± 1232 ng/mL
- Mean HBsAg in serum (HBsAg, Hepatitis B Virus [3]; day 15): 2309 ± 1315 ng/mL
- Mean HBsAg in serum (HBsAg, Hepatitis B Virus [3]; day 29): 2418 ± 1470 ng/mL
- Mean HBsAg in serum (HBsAg, Hepatitis B Virus [3]; day −2 (pre-dose)): 7218 ± 4071 ng/mL
- HBsAg in serum (mean ± SD) (normalized to pre-dose and saline control group) (HBsAg, Hepatitis B Virus [3]; day 36): 0.592 ± 0.140
- HBsAg in serum (mean ± SD) (normalized to pre-dose and saline control group) (HBsAg, Hepatitis B Virus [3]; day −2 (pre-dose)): 1.000 ± 0.000

Substance: AD01386: duplex AM02312-AS/AM02320-SS (C6) (antisense TACCAAUUUAUGCCUACAGTT; sense UAUCUGUAGGCAUAAAUUGGUAT; siRNA; C6, chemistry not fully specified)
- Mean HBsAg in serum (HBsAg, Hepatitis B Virus [1]; day 5): 125 ± 98 ng/mL
- Mean HBsAg in serum (HBsAg, Hepatitis B Virus [1]; day 22): 738 ± 670 ng/mL
- Mean HBsAg in serum (HBsAg, Hepatitis B Virus [1]; day 36): 2252 ± 1565 ng/mL
- HBsAg in serum (mean ± SD) (normalized to pre-dose and saline control group) (HBsAg, Hepatitis B Virus [1]; day 5): 0.021 ± 0.007
- HBsAg in serum (mean ± SD) (normalized to pre-dose and saline control group) (HBsAg, Hepatitis B Virus [1]; day 8): 0.016 ± 0.008
- HBsAg in serum (mean ± SD) (normalized to pre-dose and saline control group) (HBsAg, Hepatitis B Virus [1]; day 15): 0.078 ± 0.027
- HBsAg in serum (mean ± SD) (normalized to pre-dose and saline control group) (HBsAg, Hepatitis B Virus [1]; day 22): 0.237 ± 0.041
- HBsAg in serum (mean ± SD) (normalized to pre-dose and saline control group) (HBsAg, Hepatitis B Virus [1]; day 29): 0.526 ± 0.045
- Mean HBV DNA in serum ([2]; day 5): 4.42 × 10^6 copies/mL
- Mean HBV DNA in serum ([2]; day 8): 2.37 × 10^6 copies/mL
- Mean HBV DNA in serum ([2]; day 15): 1.04 × 10^8 copies/mL
- Mean HBV DNA in serum ([2]; day 22): 4.94 × 10^7 copies/mL
- Mean HBV DNA in serum ([2]; day 29): 1.04 × 10^8 copies/mL
- Mean HBV DNA in serum ([2]; day 36): 9.53 × 10^7 copies/mL
- Mean HBV DNA in serum ([2]; day −2 (pre-dose)): 2.24 × 10^8 copies/mL
- Mean HBV DNA in serum (normalized to pre-dose and saline control group) ([2]; day 5): 0.020 ± 0.002
- Mean HBV DNA in serum (normalized to pre-dose and saline control group) ([2]; day 8): 0.011 ± 0.002
- Mean HBV DNA in serum (normalized to pre-dose and saline control group) ([2]; day 15): 0.153 ± 0.004
- Mean HBV DNA in serum (normalized to pre-dose and saline control group) ([2]; day 22): 0.303 ± 0.048
- Mean HBV DNA in serum (normalized to pre-dose and saline control group) ([2]; day 29): 0.710 ± 0.080
- Mean HBV DNA in serum (normalized to pre-dose and saline control group) ([2]; day 36): 0.728 ± 0.022
- Mean HBV DNA in serum (normalized to pre-dose and saline control group) ([2]; day −2 (pre-dose)): 1.000 ± 0.000
- Mean HBsAg in serum (HBsAg, Hepatitis B Virus [3]; day 8): 109 ± 120 ng/mL
- Mean HBsAg in serum (HBsAg, Hepatitis B Virus [3]; day 15): 273 ± 321 ng/mL
- Mean HBsAg in serum (HBsAg, Hepatitis B Virus [3]; day 29): 1627 ± 1487 ng/mL
- Mean HBsAg in serum (HBsAg, Hepatitis B Virus [3]; day −2 (pre-dose)): 6219 ± 5606 ng/mL
- HBsAg in serum (mean ± SD) (normalized to pre-dose and saline control group) (HBsAg, Hepatitis B Virus [3]; day 36): 0.808 ± 0.151
- HBsAg in serum (mean ± SD) (normalized to pre-dose and saline control group) (HBsAg, Hepatitis B Virus [3]; day −2 (pre-dose)): 1.000 ± 0.000
